Consider seven molecules from US20260242359A1, “IRHOM2 INHIBITORS AND USES THEREOF” (NEW YORK SOCIETY FOR THE RELIEF OF THE RUPTURED AND …, priority 2023, published 2026).

A word on the inhibition: it is the share of the control response that was lost under treatment.

One experiment relates to PMA-induced release of endogenous HB-EGF from human THP-1 macrophage cells. Briefly: Example 15: ELISA-based HB-EGF release assay, PMA-induced, THP-1 macrophage cells. The format is cell-based. The following applies: THP-1, 10 μM final concentration, PMA 25 ng/ml, 23 hours, delta Buffer stimulated vs unstimulated = 100% inhibition, read-out: inhibition of PMA-induced release of HB-EGF from THP-1 cells. The procedure:
In the following study, ELISA-based HB-EGF release assays were performed to analyze the inhibitory effects of Compounds 1, 2, 3, 4, 5, and 7 on PMA-induced release of endogenous HB-EGF from human THP-1 macrophage cells. The ELISA-based HB-EGF release assay that was used in this example is described below.
In brief, on day 1, Nunc black MaxiSorp® 96-well plates (Thermo Fisher Scientific, USA) were coated overnight with 100 μl per well of mouse anti-human HB-EGF capture antibody (provided as part of the DuoSet ELISA kit) at 2 μg/ml TBS at 4° C.
40,000 THP-1 cells (American Type Culture Collection, USA) cells in 80 μl of normal growth medium were seeded in each well of Greiner CELLSTAR V-bottom 96-well plates (Greiner Bio-One, Germany) and pre-incubated with 20 μl per well of standard growth medium supplemented with Batimastat (BB94, Abcam, UK) at 50 μM as positive control (for a final concentration of 10 μM in the resulting 100 μl sample volume), compounds of the invention at 50 μM (for a final concentration of 10 μM in the resulting 100 μl sample volume) and in case of Buffer stimulated and unstimulated controls with DMSO (Carl Roth, Germany) at 50 μM (for a final concentration of 10 μM in the resulting 100 μl sample volume) at 37° C., 5% CO2 for 30 minutes. Subsequently, cells (except those for unstimulated controls) were stimulated with 20 μl per well of PMA (Sigma-Aldrich, USA) at 150 ng/ml in growth medium for a final concentration of 25 ng/ml at 37° C., 5% CO2 for 23 hours.
On day 2, the capture antibody solution was removed and MaxiSorp® plates were blocked with 300 μl per well of TBS, 1% BSA at room temperature for 1-2 hours. Meanwhile, the 96-well plates were centrifuged to pellet cells. In parallel, blocking buffer was removed from the MaxiSorp® plates and plates were washed 4 times with 350 μl TBS-T (Carl Roth, Germany) per well on a 96-head plate washer (Tecan Group, Switzerland). To avoid drying-up, 30 μl TBS were added to each well of the MaxiSorp® plates immediately, followed by the transfer of 70 μl cell-free supernatant per sample. Additionally, 100 μl recombinant human HB-EGF protein (provided as part of the DuoSet ELISA kit) diluted in TBS at defined concentrations were added to the plate as standard references. Plates were incubated at room temperature for 2 hours. After 4 times washing with 350 μl TBS-T (Carl Roth, Germany) per well on a 96-head plate washer (Tecan Group, Switzerland) and careful removal of all buffer traces after the fourth cycle, 100 μl biotinylated goat anti-human HB-EGF detection antibody (provided as part of the DuoSet ELISA kit) at 50 ng/ml TBS were added per well and, protected from direct light, plates were incubated at room temperature for 2 hours.
After 4 times washing with 350 μl TBS-T (Carl Roth, Germany) per well on a 96-head plate washer (Tecan Group, Switzerland) and careful removal of all buffer traces after the fourth cycle, 100 μl streptavidin-AP (R&D Systems, USA) diluted 1:10,000 in TBS were added to each well and, again protected from direct light, plates were incubated at room temperature for 30 minutes. Following another round of 4 times washing with 350 μl TBS-T (Carl Roth, Germany) per well on a 96-head plate washer (Tecan Group, Switzerland) and careful removal of all buffer traces after the fourth cycle, 100 μl AttoPhos substrate solution (Promega, USA) per well was added for incubation in the dark at room temperature for 1 hour. Using an infinite M1000 (Tecan Group, Switzerland) microplate reader, the fluorescence of each well was collected at an excitation wavelength of 435 nm and an emission wavelength of 555 nm.
The delta between Buffer stimulated and Buffer unstimulated was defined 100% inhibition.
On the technique in general: In an ELISA, binding on a coated surface is turned into a signal by an enzyme label.
For the molecule `CNC(=O)[C@H](Cc1ccccc1)NC(=O)[C@H](CC(C)C)[C@H](CSc1cccs1)C(=O)NO` [Batimastat, reference compound], the inhibition at 10 µM is 99.2%.
Turning to `CCOC(=O)c1ccc(Nc2nc3nonc3n3nnnc23)cc1` [Compound 2], the inhibition at 10 µM was 77.5%.
Regarding `O=C(c1c(Cl)cccc1Cl)N1CCC(Cc2ccc(F)cc2)CC1` [Compound 3], the inhibition at 10 µM is 29.6%.
On to `Cc1c(C(=O)NCc2cccs2)sc(=O)n1Cc1ccccc1` [Compound 4], for which the inhibition at 10 µM was 62.5%.
The same measure, in the same setting: the same measure for `Cc1c(C(=O)NCc2cccs2)sc(=O)n1Cc1ccccc1F` [Compound 5]: 55.1%; for `Cc1c(C(=O)NCc2ccco2)sc(=O)n1Cc1ccccc1F` [Compound 7]: 95.1%.

The same experiment, now with this note: THP-1, 23 h, read-out: inhibition of PMA-induced release of HB-EGF from THP-1 cells.
With `CCC(=O)NCCc1c(/C=C2/C(=O)NC(=O)N(c3ccc(C)cc3C)C2=O)[nH]c2ccccc12` [Compound 1], the inhibition at 10 µM was found to be 95.4%.
